Experimental findings from US11452714B2, “Antibacterial agents including histidine kinase inhibitors” (Regents of the University of Minnesota, priority 2017, dated 2022) are described below.

The term IC50 denotes the point on the concentration scale where inhibition reaches its midpoint. Read a high IC50 as weaker potency.

The target of experiment [1] is T1, histidine kinase HK853 (Thermotoga maritima, UniProt Q9WZV7).
T1 sequence (Q9WZV7 232-489): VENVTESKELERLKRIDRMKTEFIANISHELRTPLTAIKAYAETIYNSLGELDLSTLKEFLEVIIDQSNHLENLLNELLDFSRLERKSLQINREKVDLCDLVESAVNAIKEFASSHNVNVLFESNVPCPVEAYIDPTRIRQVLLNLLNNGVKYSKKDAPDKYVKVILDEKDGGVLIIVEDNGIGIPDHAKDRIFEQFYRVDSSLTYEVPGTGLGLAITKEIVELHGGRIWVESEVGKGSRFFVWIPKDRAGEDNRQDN
As to the kind of experiment: biochemical.
Description: (§1) Triton X-100 was premixed with reaction buffer to yield 0.1% (v/v) in final 25-μL reactions. Samples were mixed and incubated in the dark at RT for 1 h before quenching with 8.6 μL 2×SDS-PAGE sample loading buffer and loading 10 μL on a 10%0/stacking gel. After SDS-PAGE, in-gel fluorescence detection elucidated HK853 activity, and silver staining of the gels ensured even protein loading. Integrated density values of the fluorescent gel bands were normalized as “% Activity” with respect to a control that contained no inhibitor. Data were plotted in GraphPad Prism (available from GraphPad Software, San Diego, Calif.) with relation to the log of molar inhibitor to determine IC50 values, using EQUATION 1.

Experiment [2] deals with T1, histidine kinase HK853. Conditions: for inhibition of HK853: non-native bases or nucleosides, in words.
Description: as §1
The target of the next experiment is T2, HK853 (Thermotoga maritima, UniProt Q9WZV7).
T2 sequence (Q9WZV7 232-489): T1 sequence (Q9WZV7 232-489)
Conditions: for inhibition of HKs: in words; for IC50 values (95% confidence interval), n = 2: riluzole analogs, second TABLE 3, 0.1% Triton X-100.

Where [3] appears, read: IC50, purine derivatives, TABLE 2, N/I = no inhibition.
The mark [4] stands for this setting: IC50, sulfonyl fluoride side chains, Example 4.
The mark [5] stands for this setting: phenyl-adenine derivatives, first TABLE 3, N/I = no inhibition.
[6] abbreviates: adenine derivatives, TABLE 1, N/I = no inhibition was observed.
[7] abbreviates: purine derivatives, TABLE 2, N/I = no inhibition.

Read-outs that look alike come from different tables or passages of the source.

For `Cn1cnc2c(N)ncnc21` [CW29], inhibition against histidine kinase HK853 [1] (setting [3]) was half-maximal at 150 µM (IC50).
`c1ccc(Nc2ncnc3nc[nH]c23)cc1` [Compound C15] registered a concentration for half-maximal inhibition (IC50) against histidine kinase HK853 [1] of 7.6 µM.
For `Nc1nc2ccc(NCc3ccc(S(=O)(=O)F)cc3)cc2s1` [riluzole analog with benzyl SO2F], at histidine kinase HK853 [1] (setting [4]), the IC50 came out at 2.1 µM.
Take `Fc1ccc(Nc2ncnc3[nH]cnc23)cc1` [CW38]: at histidine kinase HK853 [1], half-maximal inhibition (IC50) was put at 1900 µM.
Consider `Nc1nc2nc[nH]c2c(=O)[nH]1` [Guanine, reference compound], for which the “inhibition of HK853” value at histidine kinase HK853 [2] was “did not appear to inhibit HK853”.
With `Cn1cnc2c(N)ncnc21` [Compound C13], the concentration for half-maximal inhibition (IC50) against histidine kinase HK853 [1] (IC50, adenine derivatives, TABLE 1, N/I = no inhibition was observed) stood at 145 µM.
At histidine kinase HK853 [1], `Nc1ncnc2c1ncn2C1OC(COC(=O)c2ccccc2)C(O)C1O` (stereo not drawn) showed an IC50 of 192 µM.
On histidine kinase HK853 [1], `CCCN(CCC)c1ncnc2c1ncn2C1OC(CO)C(O)C1O` (stereo not drawn) [Compound C19] showed an IC50 of 1100 µM.
On to `Clc1ccc(Nc2ncnc3[nH]cnc23)cc1` [CW37], for which the concentration for half-maximal inhibition (IC50) against histidine kinase HK853 [1] turned out to be 1700 µM.
For `Nc1nc2c(Cl)cc(Cl)cc2s1` [Rilu-10], at HK853, the “inhibition of HKs” value is recorded as “did not significantly inhibit HKs” and the “IC50 values (95% confidence interval), n = 2” value is “No Inhibition”.
As for `Nc1ncnc2c1ncn2C1OC(CO)C(O)C1O` (stereo not drawn) [Compound C12], it took 445 µM to reach half-maximal inhibition on histidine kinase HK853 [1] (IC50).
Turning to `OCC1OC(n2cnc3c(Nc4ccccc4)ncnc32)C(O)C1O` (stereo not drawn) [CW35], on histidine kinase HK853 [2] (setting [5]), the half-inhibitory concentration (IC50) entry was “N/I”.
For `Nc1ncnc2c1ncn2C1OC(COC(=O)c2ccc(S(=O)(=O)F)cc2)C(O)C1O` (stereo not drawn) [6-O-benzoyl adenosine, R=SO2F], the half-inhibitory concentration (IC50) on histidine kinase HK853 [1] (setting [4]) worked out at 5.3 µM.
Consider `OCC1OC(n2cnc3c(Cl)ncnc32)C(O)C1O` (stereo not drawn) [Compound C18], for which the IC50 result against histidine kinase HK853 [2] (setting [6]) is recorded as “N/I”.
`OC[C@H]1O[C@@H](n2cnc3c(O)ncnc32)[C@H](O)[C@@H]1O` [Inosine, reference compound]: the “inhibition of HK853” value against histidine kinase HK853 [2] is recorded as “did not appear to inhibit HK853”.
`Nc1nc(Cl)c2nc[nH]c2n1` [CW20] registered a concentration for half-maximal inhibition (IC50) on histidine kinase HK853 [2] (setting [7]) of 118 µM.
As to `Clc1nc(Nc2ccccc2)c2nc[nH]c2n1` [CW36], at histidine kinase HK853 [2] (setting [5]), the half-inhibitory concentration (IC50) result is recorded as “N/I”.
Take `OCC1OC(n2cnc3c(Cl)ncnc32)C(O)C1O` (stereo not drawn) [CW19]: the half-inhibitory concentration (IC50) entry against histidine kinase HK853 [2] (setting [7]) is listed as “N/I”.
The same measure, in the same setting: under `Nc1nc(F)nc2[nH]cnc12` [CW24] stands 310 µM; under `Nc1nc(Cl)nc2[nH]cnc12` [CW22], 156 µM.
Consider `Nc1nc2c(ncn2[C@@H]2O[C@H](CO)[C@@H](O)[C@H]2O)c(=O)[nH]1` [Guanosine, reference compound], for which the “inhibition of HK853” value against histidine kinase HK853 [2] is “did not appear to inhibit HK853”.
Turning to `Cn1cnc2ncnc(N)c21` [CW30], the IC50 entry against histidine kinase HK853 [2] (setting [7]) is reported as “N/I”.
The compound `Nc1nc(F)nc2c1ncn2C1OC(CO)C(O)C1O` (stereo not drawn) [CW25] had an IC50 against histidine kinase HK853 [1] (setting [3]) of 218 µM.
For the compound `Nc1nc2cc(Br)c(Br)cc2s1` [Rilu-11], on HK853, the “inhibition of HKs” value was “did not significantly inhibit HKs” and the “IC50 values (95% confidence interval), n = 2” value is listed as “No Inhibition”.
With `Cn1cnc2ncnc(N)c21` [Compound C26], the half-maximal inhibitory concentration (IC50) result against histidine kinase HK853 [2] (setting [6]) is given as “N/I”.
